The source of these data is US11377442B2, “Small molecule agonists and antagonists of NR2F6 activity” (ZANDER THERAPEUTICS, INC., priority 2016, dated 2022).

What all share (assay type): cell-based
In one data set the test system is Renilla. Nature of the data set: Renilla signal in NR2F6 agonist screening, cmpd/DMSO. The following applies: for fold induction at 2 µM / fold induction at 10 µM / fold induction at 40 µM: Renilla, Table 14, read-out: Renilla F4, cmpd/DMSO (mean).
The test system of another data set is HEK293 pGL4. Nature of the data set: Firefly_pGL signal, cmpd/DMSO (pGL4 control cells). The following applies: Homo sapiens, HEK293, Table 14, read-out: Firefly pGL4, cmpd/DMSO (mean).
The target in the next data set is T1, NR2F6 (Homo sapiens, UniProt P10588).
T1 construct: expressed in transfected cells; also transient transfection
T1 sequence (P10588 1-404): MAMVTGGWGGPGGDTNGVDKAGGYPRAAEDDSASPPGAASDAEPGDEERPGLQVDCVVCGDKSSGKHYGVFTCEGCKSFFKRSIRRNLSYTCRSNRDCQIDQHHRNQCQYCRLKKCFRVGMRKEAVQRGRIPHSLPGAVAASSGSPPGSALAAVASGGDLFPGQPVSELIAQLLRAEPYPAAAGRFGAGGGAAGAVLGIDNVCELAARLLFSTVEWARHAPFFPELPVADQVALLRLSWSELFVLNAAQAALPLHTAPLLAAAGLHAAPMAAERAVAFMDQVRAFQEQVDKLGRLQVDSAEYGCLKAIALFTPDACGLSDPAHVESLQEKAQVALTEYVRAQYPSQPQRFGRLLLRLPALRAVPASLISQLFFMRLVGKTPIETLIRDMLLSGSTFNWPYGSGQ
The data set can be described thus: NR2F6 agonist screening, Firefly signal cmpd/DMSO. The following applies: for Firefly F4, cmpd/DMSO (mean): Table 14; for activity (in words): screening result; for Firefly/Renilla (NR2F6 stable, clone F4): ratio Firefly/Renilla; for Firefly, NR2F6 stable (clone F4)/pGL4: ratio of Firefly in NR2F6 stable clone F4 to pGL4.

Setting [1] is: C11 analogs follow set (Tables 2-10).

As to `Cc1ccc(NC(=O)c2noc3c2CC(C)CC3)cc1C` (stereo not shown) [Compound E53], the fold induction at 2 µM with Renilla (2 uM) came out at 0.9; in the data set on HEK293 pGL4, 1.5. Besides, the fold induction at 10 µM in the data set on Renilla (10 uM) amounted to 0.8; in the data set with HEK293 pGL4 it was 1.4. Also, the fold induction at 40 µM in the data set with Renilla (40 uM) came out at 1.1; with HEK293 pGL4, 1.6. On NR2F6 (NR2F6 agonist activity confirmation), the “cytotox effect (decreasing both renilla and firefly activity)” value was “strong cytotox effect”. Also, the results for the “Firefly F4, cmpd/DMSO (mean)” value on NR2F6 (2 uM), at NR2F6 (10 uM) and at NR2F6 (40 uM) were 1.0, 1.1 and 1.4, respectively. Moreover, the “increase of firefly activity” value at NR2F6 (at 10 uM) was 6 times. Besides, at NR2F6 (at 10 uM and 50 uM), the “firefly signal over DMSO level” value is recorded as roughly 3 times.

On to `CCOC(=O)c1cnc2c(C)cc(C)cc2c1N1CCC(CO)CC1` [Compound Z79], for which the fold induction at 2 µM with Renilla (2 uM) is 0.9; in the data set on HEK293 pGL4, 0.8. For the same compound, the figures for the fold induction at 10 µM in the data set on Renilla (10 uM) and in the data set with HEK293 pGL4 were 0.6 and 0.5, respectively. Besides, the fold induction at 40 µM in the data set on Renilla (40 uM) is 0.2; in the data set on HEK293 pGL4, 0.8. Also, the “Firefly F4, cmpd/DMSO (mean)” value turned out to be 0.9 at NR2F6 (2 uM), 0.5 on NR2F6 (10 uM) and 0.3 at NR2F6 (40 uM).

For the compound `Cc1ccc(NC(=O)c2noc3c2CCC3)cc1C` [Compound C301], the figures for the fold induction at 2 µM in the data set on Renilla (2 uM) and with HEK293 pGL4 were 1.1 and 2.4, respectively. For the same compound, the fold induction at 10 µM with Renilla (10 uM) turned out to be 0.7; in the data set with HEK293 pGL4 it was 1.6. The fold induction at 40 µM was 1 in the data set with Renilla (40 uM) and 1.1 in the data set with HEK293 pGL4. Also, the “Firefly F4, cmpd/DMSO (mean)” value was found to be 1.2 on NR2F6 (2 uM), 1.0 on NR2F6 (10 uM) and 1.0 at NR2F6 (40 uM).

`Cc1cc(C)n2nc(CNS(=O)(=O)c3ccc(F)cc3)nc2n1` [Compound E12]: the fold induction at 2 µM came out at 0.7 in the data set with Renilla (2 uM) and 0.9 in the data set on HEK293 pGL4. Besides, the fold induction at 10 µM in the data set on Renilla (10 uM) came out at 0.7; in the data set with HEK293 pGL4 it was 0.8. Also, the fold induction at 40 µM in the data set with Renilla (40 uM) and in the data set with HEK293 pGL4 was 1 in each case. For the same compound, the entries for the “Firefly F4, cmpd/DMSO (mean)” value at NR2F6 (2 uM), on NR2F6 (10 uM) and on NR2F6 (40 uM) were 0.7, 0.9 and 0.5, respectively.

As for `Cc1cc(C)n2nc(CNS(=O)(=O)c3c(F)c(F)c(F)c(F)c3F)nc2n1` [Compound Z55], the fold induction at 2 µM in the data set on Renilla (2 uM) and in the data set on HEK293 pGL4 was 0.8 throughout. Further, the results for the fold induction at 10 µM with Renilla (10 uM) and in the data set with HEK293 pGL4 were 0.3 and 0.7, respectively. The fold induction at 40 µM in the data set with Renilla (40 uM) was 0.1; in the data set with HEK293 pGL4, 2.3. Moreover, the “Firefly F4, cmpd/DMSO (mean)” value at NR2F6 (2 uM) is listed as 1.1; at NR2F6 (10 uM), 0.8; at NR2F6 (40 uM), 2.0. Besides, the “activity (in words)” value on NR2F6 was “particularly good activity”.

With `Cc1cc(C)n2nc(CNS(=O)(=O)c3ccc(Cl)cc3)nc2n1` [Compound Z91], the fold induction at 2 µM in the data set on Renilla (2 uM) was 1.1; in the data set with HEK293 pGL4, 1. In addition, the fold induction at 10 µM in the data set with Renilla (10 uM) came out at 1.1; in the data set with HEK293 pGL4, 1. The fold induction at 40 µM in the data set with Renilla (40 uM) was determined as 0.8; in the data set on HEK293 pGL4, 1.1. Besides, the “Firefly F4, cmpd/DMSO (mean)” value on NR2F6 (2 uM) was 1.0; on NR2F6 (10 uM), 1.1; at NR2F6 (40 uM), 1.3.

As to `Cc1ccc(NC(=O)c2noc3c2CC(C(C)(C)C)CC3)cc1C` (stereo not shown) [Compound C303], the values for the fold induction at 2 µM with Renilla (2 uM) and with HEK293 pGL4 were 1 and 1.1, respectively. The results for the fold induction at 10 µM with Renilla (10 uM) and in the data set with HEK293 pGL4 were 0.8 and 1.1, respectively. Also, the values for the fold induction at 40 µM with Renilla (40 uM) and with HEK293 pGL4 were 1 and 1.1, respectively. The results for the “Firefly F4, cmpd/DMSO (mean)” value on NR2F6 (2 uM), at NR2F6 (10 uM) and at NR2F6 (40 uM) were 1.2, 0.9 and 0.9, respectively.

As to `Cc1cc(C)nc(Sc2nnc(-c3ccc(C)c(S(=O)(=O)N4CCOCC4)c3)c3ccccc23)n1` [Compound Z56], the fold induction at 2 µM in the data set with Renilla (2 uM) stood at 0.9; with HEK293 pGL4, 1.2. In addition, the fold induction at 10 µM turned out to be 0.3 in the data set on Renilla (10 uM) and 8.9 in the data set on HEK293 pGL4. Further, the fold induction at 40 µM in the data set with Renilla (40 uM) was 0.2; with HEK293 pGL4, 1.2. Moreover, the “Firefly F4, cmpd/DMSO (mean)” value at NR2F6 (2 uM) is 1.2; on NR2F6 (10 uM), 2.1; at NR2F6 (40 uM), 0.5. In addition, on NR2F6, the “activity (in words)” value is reported as “particularly good activity”.

`CCOC(=O)c1cnc2c(C)cc(C)cc2c1NCCCN(C)C` [Compound Z54]: the fold induction at 2 µM with Renilla (2 uM) came out at 0.7; in the data set with HEK293 pGL4 it was 1.1. Also, the fold induction at 10 µM in the data set on Renilla (10 uM) amounted to 0.3; in the data set with HEK293 pGL4 it was 1.9. Moreover, the results for the fold induction at 40 µM in the data set on Renilla (40 uM) and with HEK293 pGL4 were 0.2 and 0.8, respectively. Besides, the “Firefly F4, cmpd/DMSO (mean)” value at NR2F6 (2 uM) amounted to 0.8; at NR2F6 (10 uM), 1.6; at NR2F6 (40 uM) it was 0.6. Further, at NR2F6, the “activity (in words)” value is recorded as “particularly good activity”.

For the compound `Cc1ccc(NC(=O)c2n[nH]c3c2CC(C)CC3)cc1C` (stereo not shown) [Compound Z96], the “NR2F6_full (stable, clone F4), cmpd/DMSO Renilla” value is given as 1.3 in the data set with Renilla (2 uM), 1.2 with Renilla (10 uM) and 1.2 with Renilla (40 uM). Further, the figures for the “NR2F6_full (transient), cmpd/DMSO Renilla” value in the data set with Renilla (2 uM), in the data set on Renilla (10 uM) and in the data set on Renilla (40 uM) were 1.0, 1.0 and 0.9, respectively. The figures for the “NR2F6_full (stable, clone F4), cmpd/DMSO Firefly” value on NR2F6 (2 uM), on NR2F6 (10 uM) and at NR2F6 (40 uM) were 2.9, 2.6 and 2.6, respectively. In addition, the results for the “NR2F6_full (transient), cmpd/DMSO Firefly” value on NR2F6 (2 uM), at NR2F6 (10 uM) and at NR2F6 (40 uM) were 2.4, 2.3 and 2.4, respectively.

`COc1ccc(-c2noc(Cn3ncccc3=O)n2)cc1` [Compound Z97]: the “NR2F6_full (stable, clone F4), cmpd/DMSO Renilla” value with Renilla (2 uM) is 1.1; in the data set on Renilla (10 uM) it was 1.1; in the data set with Renilla (40 uM) it was 1.2. For the same compound, the “NR2F6_full (transient), cmpd/DMSO Renilla” value with Renilla (2 uM) is 1.0; in the data set on Renilla (10 uM) it was 1.1; in the data set with Renilla (40 uM), 1.1. The “Firefly, cmpd/DMSO (mean)” value at NR2F6 is 2.1. In addition, the “NR2F6_full (stable, clone F4), cmpd/DMSO Firefly” value at NR2F6 (2 uM) came to 2.3; at NR2F6 (10 uM), 2.2; on NR2F6 (40 uM), 1.5. In addition, the “NR2F6_full (transient), cmpd/DMSO Firefly” value at NR2F6 (2 uM) is on record as 2.4; at NR2F6 (10 uM), 2.8; at NR2F6 (40 uM), 2.3.

Take `O=c1oc2ccccc2cc1S(=O)(=O)c1ccc(Br)cc1` [Compound C102]: at NR2F6 (setting [1]), the “Firefly, cmpd/DMSO repeat 1” value came out at 13.0 and the “Firefly, cmpd/DMSO repeat 2” value worked out at 15.3. Moreover, at NR2F6 (Table 12), the “Firefly/Renilla (NR2F6 stable, clone F4)” value is given as 2.4; the “Firefly, NR2F6 stable (clone F4)/pGL4” value was 5.9; the “Firefly, cmpd/DMSO repeat 1” value was found to be 13.0; the “Firefly, cmpd/DMSO repeat 2” value is listed as 15.3.

`Cc1cc(S(=O)(=O)c2cc3ccccc3oc2=O)ccc1F` [Compound C110]: on NR2F6 (setting [1]), the “Firefly, cmpd/DMSO repeat 1” value is on record as 7.6 and the “Firefly, cmpd/DMSO repeat 2” value amounted to 7.2. At NR2F6 (Table 12), the “Firefly/Renilla (NR2F6 stable, clone F4)” value is 3.3; the “Firefly, NR2F6 stable (clone F4)/pGL4” value was found to be 3.9; the “Firefly, cmpd/DMSO repeat 1” value was determined as 7.6; the “Firefly, cmpd/DMSO repeat 2” value was 7.2.

For `COc1ccc2cc(S(=O)(=O)c3cc(F)cc(F)c3)c(=O)oc2c1` [Compound C262], on NR2F6 (setting [1]), the “Firefly, cmpd/DMSO repeat 1” value stood at 1.8 and the “Firefly, cmpd/DMSO repeat 2” value was determined as 2.2.

With `O=c1oc2cc(O)ccc2cc1S(=O)(=O)c1ccccc1` [Compound C273], on NR2F6 (setting [1]), the “Firefly, cmpd/DMSO repeat 1” value worked out at 2.0 and the “Firefly, cmpd/DMSO repeat 2” value was 1.5.

Take `CCOc1cccc2cc(S(=O)(=O)c3ccc(Cl)cc3)c(=O)oc12` [Compound C244]: on NR2F6 (Table 9), the “Firefly, cmpd/DMSO repeat 1” value was 9.7 and the “Firefly, cmpd/DMSO repeat 2” value turned out to be 14.1.

As for `COc1ccc2cc(S(=O)(=O)c3ccc(C)c(Cl)c3)c(=O)oc2c1` [Compound C261], at NR2F6 (setting [1]), the “Firefly, cmpd/DMSO repeat 1” value is 2.0 and the “Firefly, cmpd/DMSO repeat 2” value was 1.4.

`COc1ccccc1-c1noc(Cn2nccc(C)c2=O)n1` [Compound Z151]: the “Firefly, cmpd/DMSO (mean)” value at NR2F6 is 1.1.
